Measurements: article PMC7450057, “Enhancing intracellular accumulation and target engagement of PROTACs with reversible covalent chemistry” (Nature Communications, 2020)
Several values for one entry are separate records, joined by “and”; a condition that tells them apart may be missing. Equal entries are not always repeated. Where two headings read alike, the source gives them in different places.

Legend:
BTK-NanoLuc fusion = target: T1, BTK-NanoLuc fusion (Homo sapiens, UniProt Q06187); assay: NanoBRET BTK in-cell target engagement assay; format: cell-based
T1 construct: host or cells: HEK 293T/17
How it was run: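 Tracer-displacement IC50 derived from background-corrected BRET ratio (450 nm donor, 610 nm acceptor) in live HEK293/T17 cells transfected with BTK-NanoLuc. Cells were exposed for 2 h at 37 °C to 1.0 µM tracer plus 5-fold serial dilutions of compound from 10 µM.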

[1] = target: truncated Cereblon protein (Homo sapiens, UniProt Q96SW2); assay: CRBN binding assay (fluorescence quenching); conditions: for Fluorescence Intensity: Supplementary Figure 11, replicates
Procedure: The Kd values of compounds to CRBN were measured based on fluorescence quenching after compounds binding to CRBN. […] All the compounds were dissolved in DMSO (10 mM) as stock solutions. The final drug concentration is 100 nM. […] Fluorescence intensity values for control wells (assay buffer only) were subtracted from each data point prior to analysis. The Kd was calculated using GraphPad Prism with the following equation curve fit. I=I0−If×Kd/P0+Kd+If

MOLM-14 cells = assay: AlamarBlue cell viability assay, MOLM-14; conditions: for MOLM-14 Cell Viability%: Figure 2f, 5 replicates
Procedure: The IC50 was calculated using GraphPad Prism software with a four-parameter dose-response curve fit.

BTK [2] = target: BTK (Homo sapiens, UniProt Q06187); assay: BTK degradation in MOLM-14 cells (western blot); format: cell-based; set-up: endogenous in cells; host or cells: MOLM-14; conditions: for BTK%: Figure 2c, DMSO = 100
BTK [3] = target: BTK (Mus musculus, UniProt P35991); assay: BTK degradation in mouse B-cell lymphoma cell line derived from Eu-Myc mice; format: cell-based; set-up: endogenous in cells; host or cells: B cell lymphoma cell line derived from Eu-Myc mice; conditions: for BTK quantification (anti-BTK / anti-β-actin): Supplementary Figure 10, replicates, DMSO about 100
Procedure: MOLM-14 cell line was obtained from Dr. Conneely at Baylor College of Medicine, and the Mino cells were purchased from the American Type Culture Collection (ATCC, Cat. No. CRL-3000). Both cell lines were cultured in RPMI 1640 medium (Thermo Fisher Scientific, Cat. No. MT10040CV) supplemented with 10% fetal bovine serum (GE Healthcare, Cat. No. SH30071.03) and 1% Pen/Strep (Thermo Fisher Scientific, Cat. No. 15140163). The wild-type and C481S BTK XLA cell lines were gifts from Dr. Woyach at The Ohio State University and were cultured in RPMI 1640 medium with 15% fetal bovine serum, 1% Pen/Strep, and 1.0 µg/ml puromycin (Thermo Fisher Scientific, Cat. No. A1113803). HEK 293T/17 cells were purchased from ATCC (Cat. No. CRL-11268) were maintained in DMEM (Thermo Fisher Scientific, Cat. No. MT10013CV) with 10% fetal bovine serum and 1% Pen-Strep. The B cell lymphoma cell line derived from Eu-Myc mice was a gift from Dr. Yulin Li at Houston Methodist Research Institute and cultured in RPMI 1640 medium supplemented with 15% (v/v) fetal bovine serum (FBS), 100 U/mL penicillin, 100 μg/mL streptomycin, and 0.05 mM beta-mercaptoethanol and puromycin (1 μg/mL). Cells were grown at 37 °C with 5% CO2.
The collected cells and spleen tissues were lysed in RIPA lysis buffer (50 mM Tris-HCl, pH 7.4, 150 mM NaCl, 1% NP-40, 0.5% sodium deoxycholate, 0.1% SDS) supplemented with Halt™ Protease and Phosphatase Inhibitor Cocktail (Thermo Fisher Scientific, Cat. No. PI78440) immediately before use. Lysates were centrifuged at 15,000 × g for 10 min at 4 °C and the supernatant was quantified for total protein concentration using the Pierce BCA Protein Assay (Thermo Fisher Scientific, Cat. No. 23225). Thirty micrograms of protein were loaded onto sodium dodecyl sulfate−polyacrylamide gel for electrophoresis (Bio-Rad) and transferred onto PVDF membranes (Millipore, Cat. No. IPVH00010). […] Imaging was performed using the ECL Prime chemiluminescent western blot detection reagents (GE Healthcare, Cat. No. RPN2232) by visualization of the blots to X-Ray film or with an Imager (Kindle Biosciences, Cat. No. D1001). All western blots were subsequently processed and quantified with Imager software. Protein level was normalized to β-actin or GAPDH loading controls.

T1 sequence (Q06187 whole entry, the tested form may be a part): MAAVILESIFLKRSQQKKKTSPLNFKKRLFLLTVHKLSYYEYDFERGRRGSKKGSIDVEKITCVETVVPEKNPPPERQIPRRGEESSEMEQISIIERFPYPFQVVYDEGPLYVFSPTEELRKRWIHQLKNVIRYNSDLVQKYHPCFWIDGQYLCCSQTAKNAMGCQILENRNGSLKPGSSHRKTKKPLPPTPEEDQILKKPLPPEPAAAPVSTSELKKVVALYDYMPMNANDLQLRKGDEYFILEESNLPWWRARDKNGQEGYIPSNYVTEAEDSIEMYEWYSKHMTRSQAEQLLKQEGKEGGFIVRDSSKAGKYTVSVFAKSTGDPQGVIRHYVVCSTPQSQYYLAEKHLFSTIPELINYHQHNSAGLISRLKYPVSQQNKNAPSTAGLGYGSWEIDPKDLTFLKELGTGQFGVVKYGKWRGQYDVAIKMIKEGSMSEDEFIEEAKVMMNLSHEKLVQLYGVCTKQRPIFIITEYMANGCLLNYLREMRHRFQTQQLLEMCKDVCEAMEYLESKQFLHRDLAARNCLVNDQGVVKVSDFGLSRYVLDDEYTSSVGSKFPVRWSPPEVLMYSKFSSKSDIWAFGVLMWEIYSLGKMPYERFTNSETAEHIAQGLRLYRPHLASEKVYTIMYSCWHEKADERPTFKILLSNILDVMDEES
Chain of BTK (Homo sapiens, UniProt Q06187) (Q06187 whole entry): as the sequence (Q06187 whole entry, the tested form may be a part) above
Chain of truncated Cereblon protein (Q96SW2 318-426): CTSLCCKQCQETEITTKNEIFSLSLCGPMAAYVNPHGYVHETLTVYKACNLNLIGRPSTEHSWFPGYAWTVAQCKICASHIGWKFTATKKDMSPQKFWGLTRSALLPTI
Chain of BTK (Mus musculus, UniProt P35991) (P35991 whole entry): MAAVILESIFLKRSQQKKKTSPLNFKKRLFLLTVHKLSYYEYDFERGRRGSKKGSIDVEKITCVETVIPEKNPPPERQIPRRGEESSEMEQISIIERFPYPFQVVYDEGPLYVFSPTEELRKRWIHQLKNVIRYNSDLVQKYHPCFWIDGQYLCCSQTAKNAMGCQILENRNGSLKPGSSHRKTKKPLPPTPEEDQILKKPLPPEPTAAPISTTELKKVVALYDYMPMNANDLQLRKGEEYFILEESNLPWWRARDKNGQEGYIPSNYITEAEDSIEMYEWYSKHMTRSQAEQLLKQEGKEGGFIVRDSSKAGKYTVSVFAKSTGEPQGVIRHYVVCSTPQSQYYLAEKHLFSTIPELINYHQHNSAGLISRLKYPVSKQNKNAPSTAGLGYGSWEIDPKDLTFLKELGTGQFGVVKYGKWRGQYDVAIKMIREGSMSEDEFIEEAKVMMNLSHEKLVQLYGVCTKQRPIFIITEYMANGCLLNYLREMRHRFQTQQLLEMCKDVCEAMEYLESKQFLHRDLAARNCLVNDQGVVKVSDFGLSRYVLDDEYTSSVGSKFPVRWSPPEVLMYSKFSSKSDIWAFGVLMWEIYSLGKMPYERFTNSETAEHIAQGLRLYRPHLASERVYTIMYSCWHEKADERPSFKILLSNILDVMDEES

## CN(CCCNC(=O)CNc1cccc2c1C(=O)N(C1CCC(=O)NC1=O)C2=O)C(C)(C)C=C(C#N)C(=O)N1CCC[C@@H](n2nc(-c3ccc(Oc4ccccc4)cc3)c3c(N)ncnc32)C1 (stereo partly shown) [RC-1]
BTK-NanoLuc fusion; Figure 3c, 1.00E-05 M, triplicates
  NanoBRET(%): 5.754% and 14.0151% and 10.6773%
BTK-NanoLuc fusion; Figure 3c, 1.60E-08 M, triplicates
  NanoBRET(%): 84.9586% and 87.9015% and 82.5703%
BTK-NanoLuc fusion; Figure 3c, 2.00E-06 M, triplicates
  NanoBRET(%): 6.342% and 5.596% and 5.448%
BTK-NanoLuc fusion; Figure 3c, 3.20E-09 M, triplicates
  NanoBRET(%): 98.0219% and 99.3574% and 101.289%
BTK-NanoLuc fusion; Figure 3c, 4.00E-07 M, triplicates
  NanoBRET(%): 9.4506% and 5.015% and 9.59%
BTK-NanoLuc fusion; Figure 3c, 8.00E-08 M, triplicates
  NanoBRET(%): 24.5688% and 19.6512% and 23.4022%
BTK-NanoLuc fusion; Figure 3d, 1.00E-05 M, triplicates
  NanoBRET(%): 9.378% and 8.307% and 3.455%
BTK-NanoLuc fusion; Figure 3d, 1.60E-08 M, triplicates
  NanoBRET(%): 87.0885% and 73.1635% and 80.126%
BTK-NanoLuc fusion; Figure 3d, 2.00E-06 M, triplicates
  NanoBRET(%): 4.9185% and 3.718% and 8.9958%
BTK-NanoLuc fusion; Figure 3d, 3.20E-09 M, triplicates
  NanoBRET(%): 95.2579% and 79.7394% and 93.8869%
BTK-NanoLuc fusion; Figure 3d, 4.00E-07 M, triplicates
  NanoBRET(%): 11.2221% and 10.3003% and 9.486%
BTK-NanoLuc fusion; Figure 3d, 8.00E-08 M, triplicates
  NanoBRET(%): 50.6504% and 43.13% and 35.3416%
BTK-NanoLuc fusion; HEK-293 cells, BTK tracer 1.0 µM, Table 1 / Fig. 3c, triplicates, read-out: BTK TE IC50,TE
  IC50: 43 nM
BTK-NanoLuc fusion; HEK-293 cells, BTK tracer 1.0 µM, experiment of Fig. 3f, read-out: BTK target engagement IC50
  IC50: 33 nM
BTK-NanoLuc fusion; Kd (BTK)/IC50,TE (BTK)
  K′P,D (relative intracellular accumulation coefficient): 1.5 × 10^−1
BTK-NanoLuc fusion; at 40 nM
  BTK target engagement: 50%
BTK-NanoLuc fusion; at 200 nM
  BTK target engagement: 90%
BTK-NanoLuc fusion; experiment of Fig. 3d, read-out: BTK target engagement IC50
  IC50: 59 nM
[1]; CRBN 0 μM
  Fluorescence Intensity: 4127.8 and 4128.8 and 3844.8
[1]; CRBN 0.734375 μM
  Fluorescence Intensity: 3220.8 and 3187.8 and 3673.8
[1]; CRBN 1.46875 μM
  Fluorescence Intensity: 3204.8 and 3148.8 and 2908.8
[1]; CRBN 2.9375 μM
  Fluorescence Intensity: 2864.8 and 2662.8 and 2860.8
[1]; CRBN 5.875 μM
  Fluorescence Intensity: 2528.8 and 2598.8 and 2686.8
[1]; CRBN 11.75 μM
  Fluorescence Intensity: 1735.8 and 1776.8 and 2083.8
[1]; CRBN 23.5 μM
  Fluorescence Intensity: 1563.8 and 1722.8 and 1455.8
[1]; truncated Cereblon protein, fluorescence quenching, triplicates
  Kd: 4200 nM
MOLM-14 cells; 1.00E-05 M
  MOLM-14 Cell Viability%: 9.063% and 7.786% and 9.631% and 4.44% and 5.17%
MOLM-14 cells; 1.60E-08 M
  MOLM-14 Cell Viability%: 88.4631% and 84.0227% and 77.0073% and 72.5061% and 64.8418%
MOLM-14 cells; 2.00E-06 M
  MOLM-14 Cell Viability%: 14.0511% and 10.5434% and 12.6318% and 8.942% and 10.7462%
MOLM-14 cells; 3.20E-09 M
  MOLM-14 Cell Viability%: 89.923% and 89.9432% and 89.2741% and 70.2555% and 64.2336%
MOLM-14 cells; 4.00E-07 M
  MOLM-14 Cell Viability%: 53.7916% and 40.7948% and 45.6813% and 36.6383% and 39.4972%
MOLM-14 cells; 6.40E-10 M
  MOLM-14 Cell Viability%: 94.6269% and 96.3301% and 81.3058% and 78.386% and 72.2831%
MOLM-14 cells; 8.00E-08 M
  MOLM-14 Cell Viability%: 69.5864% and 88.0779% and 68.3495% and 63.8078% and 82.5426%
MOLM-14 cells; Homo sapiens, MOLM-14, 72 h, read-out: Cell viability IC50, MOLM-14 cells, 72 h, Alamar Blue
  IC50: 300 nM
MOLM-14 cells; read-out: Cell viability IC50, MOLM-14 cells, 72 h, Alamar Blue
  IC50: 310 nM
BTK [2]; Figure 2b, 8 nM, duplicates
  Quantification anti-BTK / anti-β-actin (BTK level vs DMSO): 63.6968 and 56.9893
BTK [2]; Figure 2b, 40 nM, duplicates
  Quantification anti-BTK / anti-β-actin (BTK level vs DMSO): 41.0784 and 35.9122
BTK [2]; Figure 2b, 200 nM, duplicates
  Quantification anti-BTK / anti-β-actin (BTK level vs DMSO): 29.8182 and 40.565
BTK [2]; 1.6 nM, duplicates
  BTK%: 93.8522% and 87.3729%
BTK [2]; 8 nM, duplicates
  BTK%: 68.8086% and 49.2324%
BTK [2]; 200 nM, duplicates
  BTK%: 29.085% and 28.987%
BTK [2]; 1000 nM, duplicates
  BTK%: 33.1562% and 45.5509%
BTK [2]; Figure 2d, DMSO = 100 (mean)
  Quantification anti-BTK / anti-β-actin (BTK level vs DMSO): 23.0985
BTK [2]; MOLM-14 cells, 200 nM, 24 h incubation
  Degradation at 200 nM (percentage of BTK degradation): 81%
BTK [2]; MOLM-14 cells, 24 h, western blot, read-out: DC50 (compound concentration inducing 50% of protein degradation)
  DC50: 6.6 nM
BTK [3]; 8 nM
  BTK quantification (anti-BTK / anti-β-actin): 63.6968 and 56.9893
BTK [3]; 40 nM
  BTK quantification (anti-BTK / anti-β-actin): 41.0784 and 35.9122
BTK [3]; 200 nM
  BTK quantification (anti-BTK / anti-β-actin): 29.8182 and 40.565
BTK [3]; dosed up to 25 µM, 24 h
  maximum BTK degradation: 30–40%
